The record followed here is ChEMBL document CHEMBL2401637, “The identification of novel p38α isoform selective kinase inhibitors having an unprecedented p38α binding mode” (Bioorg Med Chem Lett, 2013).

Each structure is given as a SMILES string.

The nature of the data set: Aqueous solubility of the compound at pH 6.5. Type of data set: physicochemical.
Consider `Cc1ccc(C(=O)NC2CC2)cc1NC(=O)c1ccc(-c2ccc(Cl)cc2)s1`, for which the solubility (in general, how much of the substance goes into solution per volume) was below 1 µg/mL. As for `Cc1ccc(C(=O)NC2CC2)cc1NC(=O)c1ccc(-c2cccc(Cl)c2)s1`, the figure is below 1 µg/mL.

As to `Cc1ccc(C(=O)NC2CC2)cc1NC(=O)c1ccc(-c2ccccc2Cl)s1`, the solubility is below 1 µg/mL.
